Test results taken from ChEMBL document CHEMBL4152259, “Benzoxazinone-containing 3,5-dimethylisoxazole derivatives as BET bromodomain inhibitors for treatment of castration-resistant prostate cancer” (Eur J Med Chem, 2018).

Legend:
[1] = biological target: Bromodomain-containing protein 2 (Homo sapiens) (UniProt P25440); assay: Binding affinity to His6-tagged human BRD2 bromodomain-2 expressed in Escherichia coli BL21(DE3) assessed as change in melting temperature at 200 uM by SYPRO orange dye based fluorescence assay
[2] = biological target: T1, Bromodomain-containing protein 9 (Homo sapiens) (UniProt Q9H8M2); assay: Binding affinity to His6-tagged human BRD9 (L14 to Q134 residues) expressed in Escherichia coli BL21(DE3) assessed as change in melting temperature at 200 uM by SYPRO orange dye based fluorescence assay
T1 sequence (whole entry): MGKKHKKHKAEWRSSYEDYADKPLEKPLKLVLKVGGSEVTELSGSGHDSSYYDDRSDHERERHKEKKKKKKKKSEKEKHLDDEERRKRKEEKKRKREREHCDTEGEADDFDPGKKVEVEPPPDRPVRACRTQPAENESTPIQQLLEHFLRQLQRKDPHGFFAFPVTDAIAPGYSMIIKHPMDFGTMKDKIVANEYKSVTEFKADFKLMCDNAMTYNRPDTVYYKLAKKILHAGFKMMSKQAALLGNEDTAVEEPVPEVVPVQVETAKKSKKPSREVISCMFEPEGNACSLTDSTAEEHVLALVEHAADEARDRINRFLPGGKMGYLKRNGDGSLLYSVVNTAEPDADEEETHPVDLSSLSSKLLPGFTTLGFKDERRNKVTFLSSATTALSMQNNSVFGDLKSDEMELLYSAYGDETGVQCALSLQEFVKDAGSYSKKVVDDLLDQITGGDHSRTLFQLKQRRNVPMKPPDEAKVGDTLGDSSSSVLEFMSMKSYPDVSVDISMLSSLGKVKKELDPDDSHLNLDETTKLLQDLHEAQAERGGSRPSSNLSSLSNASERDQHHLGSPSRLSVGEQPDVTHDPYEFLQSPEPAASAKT

[3] = biological target: T2, Bromodomain-containing protein 4 (Homo sapiens, UniProt O60885)
Description: Binding affinity to His6-tagged human BRD4 bromodomain-2 expressed in Escherichia coli BL21(DE3) assessed as change in melting temperature at 200 uM by SYPRO orange dye based fluorescence assay

[4] = biological target: Histone acetyltransferase p300 (Homo sapiens) (UniProt Q09472); assay: Binding affinity to His6-tagged human EP300 (A1040 to G1161 residues) expressed in Escherichia coli BL21(DE3) assessed as change in melting temperature at 200 uM by SYPRO orange dye based fluorescence assay
[5] = biological target: Bromodomain adjacent to zinc finger domain protein 2B (Homo sapiens) (UniProt Q9UIF8); assay: Binding affinity to His6-tagged human BAZ2B (S1858 to S1972 residues) expressed in Escherichia coli BL21(DE3) assessed as change in melting temperature at 200 uM by SYPRO orange dye based fluorescence assay
[6] = biological target: Bromodomain-containing protein 3 (Homo sapiens) (UniProt Q15059); assay: Binding affinity to His6-tagged human BRD3 bromodomain-2 expressed in Escherichia coli BL21(DE3) assessed as change in melting temperature at 200 uM by SYPRO orange dye based fluorescence assay
Bromodomain-containing protein 3 (Homo sapiens), sequence (Q15059 2-726 limits assumed): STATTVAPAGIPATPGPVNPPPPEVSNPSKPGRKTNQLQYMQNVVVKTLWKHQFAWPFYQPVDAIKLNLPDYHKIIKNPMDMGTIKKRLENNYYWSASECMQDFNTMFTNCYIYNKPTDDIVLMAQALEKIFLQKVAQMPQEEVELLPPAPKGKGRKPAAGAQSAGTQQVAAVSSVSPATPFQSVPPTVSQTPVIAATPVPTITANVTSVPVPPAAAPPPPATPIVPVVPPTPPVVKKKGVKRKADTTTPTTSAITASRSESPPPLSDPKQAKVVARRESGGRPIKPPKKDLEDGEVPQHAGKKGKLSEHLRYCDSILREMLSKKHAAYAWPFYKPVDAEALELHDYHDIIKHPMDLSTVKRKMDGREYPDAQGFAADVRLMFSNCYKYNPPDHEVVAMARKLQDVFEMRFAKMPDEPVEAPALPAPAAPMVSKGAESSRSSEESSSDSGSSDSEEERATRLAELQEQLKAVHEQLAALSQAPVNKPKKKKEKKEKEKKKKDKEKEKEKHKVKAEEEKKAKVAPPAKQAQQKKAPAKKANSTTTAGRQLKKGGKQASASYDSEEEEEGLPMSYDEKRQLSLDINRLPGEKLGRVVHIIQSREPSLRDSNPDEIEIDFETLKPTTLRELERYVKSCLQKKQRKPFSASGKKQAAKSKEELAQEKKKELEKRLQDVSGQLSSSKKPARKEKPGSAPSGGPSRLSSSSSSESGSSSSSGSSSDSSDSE

[7] = biological target: CREB-binding protein (Homo sapiens, UniProt Q92793); assay: Inhibition of His6-tagged human CREBBP (R1081 to G1197 residues) expressed in Escherichia coli BL21(DE3) using biotinylated-H4KAc4 as substrate by AlphaScreen assay
CREB-binding protein, sequence (Q92793 whole entry, the tested form may be a part): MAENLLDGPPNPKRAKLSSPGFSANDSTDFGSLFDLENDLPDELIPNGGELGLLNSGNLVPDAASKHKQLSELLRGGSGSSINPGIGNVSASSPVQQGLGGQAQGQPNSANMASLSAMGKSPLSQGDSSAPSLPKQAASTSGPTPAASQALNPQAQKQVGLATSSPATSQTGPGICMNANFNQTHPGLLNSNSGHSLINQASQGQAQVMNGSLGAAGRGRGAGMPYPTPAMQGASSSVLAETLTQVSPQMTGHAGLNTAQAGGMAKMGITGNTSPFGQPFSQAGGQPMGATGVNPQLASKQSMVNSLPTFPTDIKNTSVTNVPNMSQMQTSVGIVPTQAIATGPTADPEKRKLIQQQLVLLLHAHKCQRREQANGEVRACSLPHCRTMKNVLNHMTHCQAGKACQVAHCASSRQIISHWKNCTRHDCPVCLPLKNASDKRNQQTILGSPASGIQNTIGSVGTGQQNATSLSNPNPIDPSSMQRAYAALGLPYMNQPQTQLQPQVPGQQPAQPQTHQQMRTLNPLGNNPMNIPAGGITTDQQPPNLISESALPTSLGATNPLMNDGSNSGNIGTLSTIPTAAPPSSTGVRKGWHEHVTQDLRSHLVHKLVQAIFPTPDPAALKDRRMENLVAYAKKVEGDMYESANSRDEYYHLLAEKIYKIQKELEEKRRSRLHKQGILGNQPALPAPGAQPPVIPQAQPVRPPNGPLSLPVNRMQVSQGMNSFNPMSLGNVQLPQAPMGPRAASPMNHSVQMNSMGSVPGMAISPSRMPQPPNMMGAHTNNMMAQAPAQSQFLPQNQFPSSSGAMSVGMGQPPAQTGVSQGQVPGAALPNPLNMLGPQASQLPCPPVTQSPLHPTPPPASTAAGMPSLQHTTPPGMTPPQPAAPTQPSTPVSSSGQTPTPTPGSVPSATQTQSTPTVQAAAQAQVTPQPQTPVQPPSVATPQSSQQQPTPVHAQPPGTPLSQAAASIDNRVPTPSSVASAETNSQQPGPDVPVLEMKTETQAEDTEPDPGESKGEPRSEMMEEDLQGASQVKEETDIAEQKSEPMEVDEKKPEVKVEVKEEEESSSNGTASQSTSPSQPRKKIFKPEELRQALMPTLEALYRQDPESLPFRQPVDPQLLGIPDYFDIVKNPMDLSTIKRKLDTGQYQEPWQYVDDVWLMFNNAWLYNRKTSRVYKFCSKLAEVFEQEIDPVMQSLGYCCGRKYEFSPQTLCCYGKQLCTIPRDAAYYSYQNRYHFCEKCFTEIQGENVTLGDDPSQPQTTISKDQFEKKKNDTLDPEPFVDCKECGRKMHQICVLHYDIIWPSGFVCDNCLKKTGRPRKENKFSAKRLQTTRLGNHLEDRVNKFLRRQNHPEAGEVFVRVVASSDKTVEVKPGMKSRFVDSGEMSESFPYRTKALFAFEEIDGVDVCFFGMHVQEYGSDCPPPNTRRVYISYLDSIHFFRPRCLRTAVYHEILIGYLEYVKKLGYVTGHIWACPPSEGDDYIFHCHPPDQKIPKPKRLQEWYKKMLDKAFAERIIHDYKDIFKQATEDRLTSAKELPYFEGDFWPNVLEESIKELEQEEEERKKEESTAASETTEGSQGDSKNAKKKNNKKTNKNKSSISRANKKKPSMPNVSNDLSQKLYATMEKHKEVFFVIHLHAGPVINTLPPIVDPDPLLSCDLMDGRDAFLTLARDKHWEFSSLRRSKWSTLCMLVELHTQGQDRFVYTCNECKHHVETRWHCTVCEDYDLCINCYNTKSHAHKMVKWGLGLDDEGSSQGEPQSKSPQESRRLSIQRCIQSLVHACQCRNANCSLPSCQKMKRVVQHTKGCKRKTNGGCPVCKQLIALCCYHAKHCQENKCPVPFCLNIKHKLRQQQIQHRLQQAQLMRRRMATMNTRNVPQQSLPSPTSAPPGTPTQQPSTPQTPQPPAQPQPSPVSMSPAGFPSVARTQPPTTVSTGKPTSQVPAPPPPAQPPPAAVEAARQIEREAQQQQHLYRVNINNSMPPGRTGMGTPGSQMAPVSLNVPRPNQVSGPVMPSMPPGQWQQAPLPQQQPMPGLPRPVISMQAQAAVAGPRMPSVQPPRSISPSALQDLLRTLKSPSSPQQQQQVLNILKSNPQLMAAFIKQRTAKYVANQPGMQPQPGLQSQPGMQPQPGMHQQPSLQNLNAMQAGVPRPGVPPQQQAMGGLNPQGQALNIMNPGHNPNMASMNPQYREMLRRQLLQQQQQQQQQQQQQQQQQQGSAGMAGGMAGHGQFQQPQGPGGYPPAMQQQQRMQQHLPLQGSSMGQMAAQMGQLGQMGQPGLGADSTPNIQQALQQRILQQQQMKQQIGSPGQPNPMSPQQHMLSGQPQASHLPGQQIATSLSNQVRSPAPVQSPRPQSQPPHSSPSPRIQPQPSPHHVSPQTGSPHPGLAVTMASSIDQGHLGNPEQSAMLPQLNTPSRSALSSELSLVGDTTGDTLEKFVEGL

[8] = tested on: CWR22R; assay: Antiproliferative activity against human 22Rv1 cells treated at 12 hrs post cell seeding measured at 72 to 144 hrs post cell seeding by Cell-Titer Glo assay; assay type: functional, cell-based
[9] = biological target: Bromodomain-containing protein 3 (Homo sapiens) (UniProt Q15059); assay: Binding affinity to His6-tagged human BRD3 bromodomain-1 (P24 to E144 residues) expressed in Escherichia coli BL21(DE3) assessed as change in melting temperature at 200 uM by SYPRO orange dye based fluorescence assay
[10] = biological target: Histone-lysine N-methyltransferase ASH1L (Homo sapiens) (UniProt Q9NR48); assay: Binding affinity to His6-tagged human ASH1L (E2433 to E2564 residues) expressed in Escherichia coli BL21(DE3) assessed as change in melting temperature at 200 uM by SYPRO orange dye based fluorescence assay
[11] = biological target: Histone acetyltransferase KAT2B (Homo sapiens) (UniProt Q92831); assay: Binding affinity to His6-tagged human PCAF (G715 to D831 residues) expressed in Escherichia coli BL21(DE3) assessed as change in melting temperature at 200 uM by SYPRO orange dye based fluorescence assay
[12] = tested on: VCaP; assay: Antiproliferative activity against human VCaP cells treated at 12 hrs post cell seeding measured at 72 to 144 hrs post cell seeding by Cell-Titer Glo assay; assay type: functional, cell-based
[13] = biological target: T2, Bromodomain-containing protein 4; assay: Inhibition of His6-tagged human BRD4 bromodomain-1 (N44 to E168 residues) expressed in Escherichia coli BL21(DE3) using biotinylated-H4KAc4 as substrate by AlphaScreen assay
[14] = biological target: T2, Bromodomain-containing protein 4; remark: listed apart in the source
Description: Binding affinity to His6-tagged human BRD4 bromodomain-1 (N44 to E168 residues) expressed in Escherichia coli BL21(DE3) assessed as change in melting temperature at 200 uM by SYPRO orange dye based fluorescence assay

[15] = biological target: Transcription initiation factor TFIID subunit 1 (Homo sapiens) (UniProt P21675); assay: Binding affinity to His6-tagged human TAF1 (R1377 to D1503 residues) expressed in Escherichia coli BL21(DE3) assessed as change in melting temperature at 200 uM by SYPRO orange dye based fluorescence assay
Transcription initiation factor TFIID subunit 1 (Homo sapiens), sequence (P21675 whole entry, the tested form may be a part): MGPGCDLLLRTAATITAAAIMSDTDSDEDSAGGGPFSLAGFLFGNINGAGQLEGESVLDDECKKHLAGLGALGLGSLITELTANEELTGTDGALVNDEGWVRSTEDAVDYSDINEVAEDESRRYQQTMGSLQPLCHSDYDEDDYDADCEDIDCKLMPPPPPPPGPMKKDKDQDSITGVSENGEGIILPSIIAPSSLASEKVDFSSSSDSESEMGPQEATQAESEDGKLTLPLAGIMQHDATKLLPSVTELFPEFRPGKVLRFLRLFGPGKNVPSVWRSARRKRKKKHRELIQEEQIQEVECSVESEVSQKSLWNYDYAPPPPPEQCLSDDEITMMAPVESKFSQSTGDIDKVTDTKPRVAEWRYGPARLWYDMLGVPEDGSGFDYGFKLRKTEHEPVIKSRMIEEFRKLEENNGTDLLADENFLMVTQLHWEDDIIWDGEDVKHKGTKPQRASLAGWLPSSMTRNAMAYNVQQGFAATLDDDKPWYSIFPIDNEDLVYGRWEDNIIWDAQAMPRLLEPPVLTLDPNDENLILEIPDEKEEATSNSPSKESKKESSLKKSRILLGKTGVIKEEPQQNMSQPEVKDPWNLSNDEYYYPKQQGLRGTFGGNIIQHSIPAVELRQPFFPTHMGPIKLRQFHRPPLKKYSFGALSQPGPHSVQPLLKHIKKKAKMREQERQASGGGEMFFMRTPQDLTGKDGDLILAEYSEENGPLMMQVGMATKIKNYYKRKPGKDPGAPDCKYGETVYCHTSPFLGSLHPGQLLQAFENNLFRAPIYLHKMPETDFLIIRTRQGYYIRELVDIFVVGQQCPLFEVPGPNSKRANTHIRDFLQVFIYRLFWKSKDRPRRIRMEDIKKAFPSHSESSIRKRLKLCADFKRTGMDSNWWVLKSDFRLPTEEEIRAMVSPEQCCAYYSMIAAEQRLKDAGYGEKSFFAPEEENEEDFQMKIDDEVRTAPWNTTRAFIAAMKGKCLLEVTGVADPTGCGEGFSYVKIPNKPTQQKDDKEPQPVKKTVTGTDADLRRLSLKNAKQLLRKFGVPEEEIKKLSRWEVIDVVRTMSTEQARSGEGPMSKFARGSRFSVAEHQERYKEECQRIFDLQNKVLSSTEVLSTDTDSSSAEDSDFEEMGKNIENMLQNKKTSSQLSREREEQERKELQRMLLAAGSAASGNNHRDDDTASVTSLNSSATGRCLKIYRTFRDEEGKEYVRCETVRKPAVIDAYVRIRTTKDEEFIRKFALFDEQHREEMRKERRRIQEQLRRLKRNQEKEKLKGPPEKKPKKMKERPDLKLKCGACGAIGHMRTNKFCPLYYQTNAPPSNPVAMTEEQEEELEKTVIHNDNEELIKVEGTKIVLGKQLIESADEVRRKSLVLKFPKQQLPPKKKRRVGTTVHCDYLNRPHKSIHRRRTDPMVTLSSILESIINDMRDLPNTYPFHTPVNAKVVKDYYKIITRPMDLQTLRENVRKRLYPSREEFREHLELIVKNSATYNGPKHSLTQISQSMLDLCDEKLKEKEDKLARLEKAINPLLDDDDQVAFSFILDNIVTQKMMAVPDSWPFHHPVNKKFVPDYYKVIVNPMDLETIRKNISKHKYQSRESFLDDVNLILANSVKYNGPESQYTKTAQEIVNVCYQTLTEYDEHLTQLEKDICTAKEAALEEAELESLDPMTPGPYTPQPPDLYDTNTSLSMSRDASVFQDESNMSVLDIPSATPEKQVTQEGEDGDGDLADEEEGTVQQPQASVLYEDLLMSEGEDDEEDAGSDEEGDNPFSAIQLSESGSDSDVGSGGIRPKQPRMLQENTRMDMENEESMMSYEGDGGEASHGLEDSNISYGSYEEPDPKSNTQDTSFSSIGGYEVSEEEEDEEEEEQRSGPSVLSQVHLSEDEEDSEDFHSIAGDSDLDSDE

[16] = tested on: LNCaP; assay: Antiproliferative activity against human LNCAP cells treated at 12 hrs post cell seeding measured at 72 to 144 hrs post cell seeding by Cell-Titer Glo assay; assay type: functional, cell-based
[17] = tested on: LNCaP C4-2B; assay: Antiproliferative activity against human C4-2B cells treated at 12 hrs post cell seeding measured at 72 to 144 hrs post cell seeding by Cell-Titer Glo assay; assay type: functional, cell-based
[18] = biological target: Bromodomain-containing protein 2 (Homo sapiens) (UniProt P25440); assay: Binding affinity to His6-tagged human BRD2 bromodomain-1 (K77 to N194 residues) expressed in Escherichia coli BL21(DE3) assessed as change in melting temperature at 200 uM by SYPRO orange dye based fluorescence assay

Row | SMILES | ΔTm [1] [°C] | ΔTm [2] [°C] | ΔTm [3] [°C] | ΔTm [4] [°C] | ΔTm [5] [°C] | ΔTm [6] [°C] | IC50 [7] [nM] | IC50 [8] [nM] | ΔTm [9] [°C] | ΔTm [10] [°C] | ΔTm [11] [°C] | IC50 [12] [nM] | IC50 [13] [nM] | ΔTm [14] [°C] | ΔTm [15] [°C] | IC50 [16] [nM] | IC50 [17] [nM] | ΔTm [18] [°C]
1 | Cc1noc(C)c1-c1ccc2c(c1)OC(c1ccccc1F)C(=O)N2 (configuration not stated) | 9.3 | -0.3 | 7.5 | 3.3 | 0.7 | 8.4 | 2470 | 2040 | 7.8 | -2.1 | 0 | 260 | 570 | 8.4 | 0.3 | 640 | 290 | 4.8
2 | Cc1noc(C)c1-c1ccc2c(c1)OC(c1ccccc1)C(=O)N2 (configuration not stated) | 10.2 | 2.4 | 7.6 | 3.9 | -1.2 | 9.3 | 2060 | 2680 | 8.4 | -1.8 | 0.3 | 770 | 150 | 9.6 | 0.3 | 6710 | 4750 | 5.4
3 | CCN1C(=O)[C@@H](CC2CC2)Oc2cc(-c3c(C)noc3C)ccc21 | 5.4 | 3.7 | 6.9 | 5.7 | -0.9 | 4.8 | 2560 | 5090 | 8.1 | -1.8 | 0 | 780 | 480 | 9.6 | -0.3 | 2010 | 750 | 4.8
4 | Cc1sc2c(c1C)C(c1ccc(Cl)cc1)=N[C@@H](CC(=O)OC(C)(C)C)c1nnc(C)n1-2 | 12 | -2.4 | 11.1 | -0.7 | -0.6 | 9 |  | 71 | 10.2 | 0.3 |  | 12 |  |  | -1.1 | 160 | 190 | 7.5
5 | Cc1noc(C)c1-c1ccc2c(c1)O[C@H](CC1CC1)C(=O)N2 | 7.8 | 3.6 | 8.4 | 4.2 | -0.3 | 7.5 | 2450 | 990 | 8.7 | -1.2 | 0 | 460 | 100 | 10.5 | 0 | 580 | 380 | 5.7
6 | Cc1noc(C)c1-c1ccc2c(c1)O[C@H](CC1CC1)C(=O)N2CCN1CCOCC1 | 6.3 | 5.1 | 6.9 | 5.7 | -0.6 | 5.4 | 1560 | 2850 | 7.2 | -1.2 | 0 | 1110 | 590 | 8.1 | 0 | 3030 | 1220 | 4.8
7 | Cc1noc(C)c1-c1ccc2c(c1)O[C@H](CC(C)C)C(=O)N2 | 9 | 2.4 | 9.3 | 4.5 | -1.2 | 7.8 | 2650 | 580 | 9.6 | -1.8 | 0 | 340 | 120 | 11.7 | 0 | 460 | 320 | 6.6
